Assay results published in the NIST ThermoML archive (doi:10.1016/j.fluid.2013.01.002).

Columns and labels:
[1] = 298.15 K; 101.33 kPa; Liquid; Vibrating tube method
[2] = refractive index (Na D-line) (dimensionless); conditions: 298.15 K; 101.33 kPa; Liquid; Standard Abbe refractometry
[3] = xn = mol fraction of the nth substance listed; conditions: 298.15 K, 101 kPa, Liquid, Vibrating tube method
[4] = refractive index (Na D-line) (dimensionless); xn = mol fraction of the nth substance listed; conditions: 298.15 K, 101 kPa, Liquid, Standard Abbe refractometry

CCCCCCCCCCC [undecane]
Conditions	mass density [kg/m3]	refractive index
[1]	736.73	–
[2]	–	1.415

CCCCCCCCN(CCCCCCCC)CCCCCCCC [trioctylamine]
Conditions	mass density [kg/m3]	refractive index
[1]	807.9	–
[2]	–	1.4476

CCCCCCCCCCCCO [dodecan-1-ol]
Conditions	mass density [kg/m3]	refractive index
[1]	830.37	–
[2]	–	1.4407

CCCCCCCCN(CCCCCCCC)CCCCCCCC [trioctylamine] + CCCCCCCCCCCCO
Conditions	mass density, [3] [kg/m3]	refractive index, [4]
x1 = 0.0498	828.8	1.4416
x1 = 0.1011	827.31	1.4424
x1 = 0.2014	824.49	1.4437
x1 = 0.3012	821.97	1.4447
x1 = 0.4001	819.63	1.4455
x1 = 0.5	817.37	1.4461
x1 = 0.6005	815.19	1.4465
x1 = 0.6995	813.14	1.4469
x1 = 0.799	811.21	1.4473
x1 = 0.8999	809.43	1.4475
x1 = 0.9504	808.63	1.4476

CCCCCCCCN(CCCCCCCC)CCCCCCCC [trioctylamine] + CCCCCCCCCCC
Conditions	mass density, [3] [kg/m3]	refractive index, [4]
x1 = 0.05	743.91	1.4176
x1 = 0.1	750.33	1.4199
x1 = 0.2017	761.55	1.4243
x1 = 0.3001	770.56	1.4285
x1 = 0.4002	778.34	1.4319
x1 = 0.4997	785.01	1.4351
x1 = 0.6003	790.89	1.438
x1 = 0.6989	795.96	1.4407
x1 = 0.7996	800.52	1.4434
x1 = 0.9003	804.51	1.4455
x1 = 0.9497	806.25	1.4466

CCCCCCCCCCCC [dodecane]
Conditions	mass density [kg/m3]	refractive index
[1]	745.52	–
[2]	–	1.4195

CCCCCCCCN(CCCCCCCC)CCCCCCCC [trioctylamine] + CCCCCCCCCCCC
Conditions	mass density, [3] [kg/m3]	refractive index, [4]
x1 = 0.0501	751.32	1.4222
x1 = 0.1	756.64	1.4249
x1 = 0.1998	765.98	1.4287
x1 = 0.3	773.95	1.4323
x1 = 0.4	780.79	1.4354
x1 = 0.5001	786.75	1.4381
x1 = 0.6023	792.12	1.4403
x1 = 0.7001	796.7	1.4426
x1 = 0.8025	801	1.4444
x1 = 0.9002	804.65	1.4461
x1 = 0.9499	806.35	1.4468
